Source: PMC12048343, “Discovery of a small molecule secreted clusterin enhancer that improves memory in Alzheimer’s disease mice” (npj Drug Discovery, 2025)
≈ marks a conversion by molar mass, not a printed value. Entries after “also recorded” stand apart in the source; their conditions may differ. Like-named read-outs stand apart in the source and are kept apart here.

Tests used:
[1] = system: sCLU secreted from human U-87 MG glioblastoma cells; assay: Human sCLU AlphaLISA on supernatant of U-87 MG cells (HTS, re-test, dose response); type: cell-based; conditions: for sCLU levels relative to DMSO control: 5 µM
Description: Cell culture supernatant (2 μL) was added to a 384-well proxy plate preloaded with AlphaLISA HiBlock buffer (2 µL, 1X, CAT#AL004C, Perkin Elmer). Then an anti-sCLU antibody mixture (2 µL, mAb J84, biotinylated (10 nM, Cat# 3717-6-1000, Mabtech) and mAb CLU aa 22-227 (Cat#AF7084, R&D Systems), Acceptor bead conjugated (50 µg/mL, Cat#6772001, Perkin Elmer)) was added and incubated at room temperature for 1 hour. AlphaScreen Streptavidin Donor beads (2 µL, Cat#6760002S, Perkin Elmer) were added, incubated for an additional 30 min in the dark, and the plate was read in an Envision plate reader.
Human glioblastoma U-87 MG cells were proliferated in EMEM with 10% FBS and 1% P/S (complete medium) in 10 cm dishes until approximately 90% confluent. Following trypsinization, a suspension of 2 × 10^5 cells/mL (25 µL) were added to 384-well plates containing complete medium (25 µL) and library compounds from 9 plates (5 µM). After incubation for 30 h at 37 °C and 5% CO2, 2 μL of cell culture supernatant were analyzed via human sCLU AlphaLISA as described above. Cell culture medium and cells were added to the 384-well plates using the MultiDrop. The BioMek FX was used to pin the drugs and transfer the cell culture supernatant. The MANTIS liquid handler was used to added human sCLU AlphaLISA reagents.
Human glioblastoma U-87 MG cells were proliferated in EMEM with 10% FBS and 1% P/S (complete medium) in 10 cm dishes until approximately 90% confluent. […] After incubation for 30 hours at 37 °C and 5% CO2, 2 μL of cell culture supernatant were analyzed via human sCLU AlphaLISA as described above.

[2] = Plasma binding assay (dialysis); type: in vitro ADME; conditions: dialysis 4.5 hours, 37 °C
Description: (§1) Brain tissue was homogenized in PBS (pH 7.4) (1: 3 weight(mg)/volume(µL)) and the protein concentration was determined using the Micro BCA™ Protein Assay Kit (Thermo Fisher Scientific, Cat#23235). Brain homogenate was clarified and diluted to 20 mg/mL in PBS (pH 7.4). Either brain homogenate or plasma was and added to Slide-A-Lyzer™ MINI Dialysis Devices, 10 K MWCO dialysis cups (Thermo Fisher Scientific, Cat#PI88401) in a 48-well plate containing PBS (500 µL; pH 7.4). 1 µL of 1 mM compound was added to the brain homogenate (Final Concentration: 2 µM compound, 0.5% DMSO) and incubated on a rocker for 4.5 hours at 37 °C. 50 µL of brain homogenate or plasma (within the dialysis cup) and PBS (within the 48-well plate) were transferred to new microcentrifuge tubes containing 400 µL of quenching reagent (100% Acetonitrile) containing internal standard. Solutions were clarified by centrifugation (16,000 x g, 5 min), and the supernatants were transferred to new tubes and lyophilized. Samples were reconstituted in 100 µL of 50/50/0.1 (Water/Acetonitrile/Formic Acid) prior to analysis via liquid chromatography-tandem mass spectrometry (LC-MS/MS). The % of the unbound drug (fu,bound) was calculated using the following equation:
(§2) % Bound = [1− (PBS chromatographic peak area/ brain homogenate or plasma chromatographic peak area)] x 100

[3] = Brain tissue binding assay (dialysis); type: in vitro ADME; conditions: brain homogenate 20 mg/mL, 2 µM compound, dialysis 4.5 hours, 37 °C
Description: as §1, §2

[4] = Blood-Brain Barrier (BBB) permeability assay (IAM column, Pm); type: in vitro ADME; conditions: pH 7.4; Pm > 1.0 = CNS+
Description: A liquid chromatography-ultraviolet/visible spectroscopy (LC-UV/Vis) assay was performed on a 1290 Infinity HPLC system (Agilent Technologies) with an HPLC column containing immobilized phosphatidylcholine (IAM.PC.DD, Regis Technologies, Cat#774011, 5 µm 300 Å 100 ×4.6 mm). The HPLC method was a mixture of 6.7 mM phosphate buffer saline (pH 7.4; solvent A) and acetonitrile (solvent B), and a gradient was used for the elution of the compounds (min/%B: 0/20, 20/60, 21/20, 30/20). The retention time of the compound (tr) and void volume time of the column (t0) were recorded. Blood-brain barrier (BBB) permeability (Pm) was calculated using the following equations as described by Yoon et al. (10.1177/1087057105281656):
KIAM = (tr − t0) / t0; Pm = (KIAM / MW^4) x 10^10
Compounds with a Pm > 1.0 were determined to be BBB permeable (CNS + ) at pH 7.

[5] = Liver microsome stability assay; type: in vitro ADME; conditions: pH 7.4; human liver microsomes 0.5 mg/mL, NADPH, 37 °C, up to 120 min; read-out: Microsomal Stability t1/2
Description: An aliquot (1 µL) of test compound (1 mM, 100% DMSO) was added to an aqueous liver microsome solution (1000 µL, PBS pH 7.4, 0.5 mg/mL human liver microsomes (Thermo Fisher Scientific, Cat#HMMPL), 2 mM NADPH, 2 mM MgCl2) and incubated at 37 °C for 120 min. Aliquots (50 µL) of the microsome solution were taken at various time points (0, 5, 10, 15, 30, 60, 90, 120 min) and added to a reaction quenching solution (200 µL 100% Acetonitrile) containing an internal standard. Solutions were clarified by centrifugation (16,000 x g, 5 min), and the supernatants were transferred to new tubes and lyophilized. Samples were reconstituted in 100 µL of 50/50/0.1 (Water/Acetonitrile/Formic Acid) prior to analysis via liquid chromatography-tandem mass spectrometry (LC-MS/MS). Chromatographic peak areas normalized to the internal standard were plotted at each time point and the half-life (t1/2) of compound in liver microsomes was determined by using the trendline equation to calculate the time at which compound abundance was 50% of that at time point 0 (t0).

Kinetic solubility = type: physicochemical; conditions: aqueous buffer, kinetic from dmso stock, PBS pH 7.4, 37 °C, 100 µM nominal
Description: Test compound (10 mM, 100% DMSO) was diluted separately into aqueous buffer (100 µM; PBS pH 7.4) and DMSO at various concentrations (1000, 100, 10, 1, 0.1 µM). The solutions were then incubated at 37 °C for 90 min and centrifuged (16000xg, 5 min). An aliquot of each supernatant was analyzed by UV/Vis (if possible) or LC-MS/MS. A standard curve was made by plotting the known amount of analyte per standard in DMSO vs. absorbance or chromatographic peak area. Kinetic solubility (mM) was calculated using the trendline equation with maximum absorbance or chromatographic peak area observed in the aqueous sample.

[6] = system: nCLU levels in U-87 MG cells; assay: nCLU levels in U-87 MG cells; type: cell-based, human; conditions: 5 µM
BRD2 = BRD2 (Homo sapiens, UniProt P25440); assay: BRD2 inhibition assay; type: biochemical
BRD4 = BRD4 (Homo sapiens, UniProt O60885); assay: BRD4 inhibition assay; type: biochemical
U-87 MG cells = assay: Cytotoxicity, MultiTox-Fluor (CNS gliotoxicity); conditions: U-87 MG cells, dose response (Fig. 2F)
From the text: Cell viability and toxicity were simultaneously assessed using the MultiTox-Fluor Multiplex Cytotoxicity Assay (Cat# PRG9200, Fisher Scientific) according to the manufacturer’s protocol.

[7] = Homo sapiens, U-87 MG cells, 30 h, AlphaLISA of supernatant, read-out: EC50 for sCLU increase
[8] = selective HDAC / BET inhibitors, dose response (Fig. S1), read-out: sCLU EC50
[9] = Homo sapiens, U-87 MG cells, dose response, text and figures, read-out: sCLU EC50

Chain of BRD2 (P25440 whole entry): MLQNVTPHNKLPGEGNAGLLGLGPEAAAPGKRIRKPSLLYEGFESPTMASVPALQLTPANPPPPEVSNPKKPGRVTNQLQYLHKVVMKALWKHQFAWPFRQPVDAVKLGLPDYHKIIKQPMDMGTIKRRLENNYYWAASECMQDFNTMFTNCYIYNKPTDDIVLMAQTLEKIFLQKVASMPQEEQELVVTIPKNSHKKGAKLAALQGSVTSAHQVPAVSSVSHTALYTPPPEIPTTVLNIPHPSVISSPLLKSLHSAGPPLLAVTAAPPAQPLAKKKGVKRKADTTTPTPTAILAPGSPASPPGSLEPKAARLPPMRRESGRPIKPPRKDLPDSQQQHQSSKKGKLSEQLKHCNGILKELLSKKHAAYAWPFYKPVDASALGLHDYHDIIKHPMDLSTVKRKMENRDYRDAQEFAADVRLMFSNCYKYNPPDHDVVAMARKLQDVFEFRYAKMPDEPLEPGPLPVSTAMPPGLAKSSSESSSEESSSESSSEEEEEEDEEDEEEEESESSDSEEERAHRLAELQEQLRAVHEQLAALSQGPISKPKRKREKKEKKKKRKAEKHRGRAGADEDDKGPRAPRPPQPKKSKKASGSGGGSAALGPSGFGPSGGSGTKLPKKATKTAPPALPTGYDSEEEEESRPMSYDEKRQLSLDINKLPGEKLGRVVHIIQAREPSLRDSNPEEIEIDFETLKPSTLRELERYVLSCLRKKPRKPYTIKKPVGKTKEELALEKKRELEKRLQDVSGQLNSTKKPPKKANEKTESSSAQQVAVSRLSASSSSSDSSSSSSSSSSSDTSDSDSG

SMILES	EC50 [1, 7]	Plasma Binding [2]	Brain Tissue Binding [3]	PAMPA Pm [4]	half-life at 1 µM [5]	solubility kinetic at 90 min (Kinetic solubility)	further results
Cc1sc2c(c1C)C(c1ccc(Cl)cc1)=N[C@@H](CC(=O)OC(C)(C)C)c1nnc(C)n1-2 [(+)-JQ1, reference compound]	313 nM	85 % bound	87 % bound	1.44	27 min	86.5 µM (≈ 39.5 µg/mL)	nCLU levels [6]: not affecting nCLU levels
CCNC(=O)c1cc2c(-c3cc(C(C)(C)O)ccc3Oc3c(C)cc(F)cc3C)cn(C)c(=O)c2[nH]1 [ABBV-774]	–	–	–	–	–	–	potency as sCLU enhancer, comparison in words ([1]; U-87 MG cells, dose response): less potent sCLU enhancers than pan-BET inhibitors; EC50 [1, 8]: 1100 nM
CCCc1nn(C)c2c(=O)[nH]c(-c3cc(Cc4ccc(C(=O)Nc5ccccc5N)cc4)ccc3OCC)nc12 [CM-675]	–	–	–	–	–	–	EC50 [1, 8]: 6000 nM
Cc1sc2c(c1C)C(c1ccc(Cl)cc1)=N[C@@H](CC(=O)OC1CCCC1)c1nnc(C)n1-2 [DDL-351]	117 nM	99 % bound	94 % bound	1.35	3 min	57.5 µM (≈ 27 µg/mL)	IC50 (BRD2): 175 nM; IC50 (BRD4): 27 nM
Cc1sc2c(c1C)C(c1ccc(Cl)cc1)=N[C@@H](CC(=O)N1CCCC1)c1nnc(C)n1-2 [DDL-352]	1440 nM	96 % bound	64 % bound	0.98	62 min	> 100 µM	IC50 (BRD2; read-out: BRD2 IC50): 644 nM; IC50 (BRD4; read-out: BRD4 IC50): 105 nM
Cc1sc2c(c1C)C(c1ccc(Cl)cc1)=N[C@@H](CC(=O)NC1CCCC1)c1nnc(C)n1-2 [DDL-353]	977 nM	93 % bound	79 % bound	1.08	8 min	> 100 µM	IC50 (BRD2; read-out: BRD2 IC50): 385 nM; IC50 (BRD4; read-out: BRD4 IC50): 63 nM
Cc1sc2c(c1C)C(c1ccc(Cl)cc1)=N[C@@H](CC(=O)NCC(=O)OC(C)C)c1nnc(C)n1-2 [DDL-354]	676 nM	91 % bound	67 % bound	0.76	12 min	91.1 µM (≈ 45.6 µg/mL)	IC50 (BRD2; read-out: BRD2 IC50): 382 nM; IC50 (BRD4; read-out: BRD4 IC50): 48 nM
Cc1sc2c(c1C)C(c1ccc(Cl)cc1)=N[C@@H](CC(=O)OC1CCC1)c1nnc(C)n1-2 [DDL-355]	99 nM	86 % bound	88 % bound	1.42	27 min	63.7 µM (≈ 29 µg/mL)	IC50 (BRD2): 163 nM; IC50 (BRD4): 19 nM
CCCCOC(=O)C[C@@H]1N=C(c2ccc(Cl)cc2)c2c(sc(C)c2C)-n2c(C)nnc21 [DDL-358]	446 nM	98 % bound	93 % bound	1.42	14 min	59.3 µM (≈ 27.1 µg/mL)	IC50 (BRD2): 207 nM; IC50 (BRD4): 28 nM
Cc1sc2c(c1C)C(c1ccc(Cl)cc1)=NC(CC(=O)NC(C)C(=O)OC(C)C)c1nnc(C)n1-2 (centres unmarked) [DDL-359]	2340 nM	94 % bound	44 % bound	0.71	13 min	> 100 µM	IC50 (BRD2; read-out: BRD2 IC50): 130 nM; IC50 (BRD4; read-out: BRD4 IC50): 353 nM
Cc1sc2c(c1C)C(c1ccc(Cl)cc1)=N[C@@H](CC(=O)NO)c1nnc(C)n1-2 [DDL-360]	631 nM	88 % bound	59 % bound	1.09	> 120 min	> 100 µM	IC50 (BRD2; read-out: BRD2 IC50): 395 nM; IC50 (BRD4; read-out: BRD4 IC50): 70 nM
COc1cc2c(cc1-c1c(C)noc1C)ncc1[nH]c(=O)n(C(C)c3ccccn3)c12 (centres unmarked) [I-BET151]	–	–	–	–	–	–	EC50 [1, 9]: 617 nM; sCLU levels relative to DMSO control ([1]; U-87 MG cells): increased sCLU; also recorded: significantly increase sCLU levels; nCLU levels [6]: not affecting nCLU levels
O=C(NO)c1ccc(CNc2cccc3cccnc23)cc1 [MPT0G211]	–	–	–	–	–	–	EC50 [1, 8]: 10000 nM
Cc1cc(/N=N/c2ccc(S(=O)(=O)Nc3ccccn3)cc2)c(N)cc1O [MS436]	–	–	–	–	–	–	potency as sCLU enhancer, comparison in words ([1]; U-87 MG cells, dose response): less potent sCLU enhancers than pan-BET inhibitors
Nc1cc(F)ccc1NC(=O)/C=C/c1cnn(C/C=C/c2ccccc2)c1 [RGFP966]	–	–	–	–	–	–	EC50 ([1]; Homo sapiens, U-87 MG, selective HDAC / BET inhibitors, dose response 2-5000 nM (Fig. S1), read-out: sCLU EC50): 10100 nM
O=C(/C=C/c1cccc(S(=O)(=O)Nc2ccccc2)c1)NO [belinostat]	–	–	–	–	–	–	EC50 [1, 9]: 1120 nM; sCLU levels relative to DMSO control ([1]; U-87 MG cells): increased sCLU; cytotoxicity, comparison in words (U-87 MG cells): significant differences between belinostat and the BET inhibitors at the highest concentrations tested; nCLU levels [6]: not affecting nCLU levels
COc1cc(/C=C/C(=O)N2CCC=CC2=O)cc(OC)c1OC [piperlongumine]	–	–	–	–	–	–	sCLU levels relative to DMSO control ([1]; U-87 MG cells): significantly increase sCLU levels
O=C(CCCCCCC(=O)Nc1ccccc1)NO [vorinostat]	–	–	–	–	–	–	nCLU levels [6]: not affecting nCLU levels
